Values after ≈ are worked out from the molar mass of the structure shown. Values joined by “and” are separate entries in the source; they are usually repeats but may differ in a detail not shown here. Equal values may be shown once. Read-outs that look alike come from different tables or passages of the source.
What was measured:
[1] = system: CB6-F1 mice grafted with Balb/c splenic lymphocytes; details: for Alive Day 8 / Optimal Dose: GVHR; for Alive Day 8 / Index: at optimal dose; for Optimal Dose: i.p. per diem for 7 days; for Index: spleen index vs syngeneic control, >1.3 = successful graft rejection
Excerpt: Graft-vs-Host Reaction (GVHR)
The GVHR used for in vivo screening is a modification of the Simonsen's technique. The F1 hybrid host animal is grafted with immunocompetent spleens cells from a parent strain. The host spleen cells are incompatible to grafted donor cells but are themselves not competent to react against them (shared parental genetic determinants). The rejection mechanism in this model is, therefore, from the graft toward the host. The grafted cells, via intraperitoneal injection, migrate to the host's spleen. There they proliferate in response to the difference in genetic determinants inherited from the other parental strain. The index used to measure the success of the GVHR is spleenomegally (increased spleen weight due to cellular proliferation of grafted lymphocytes). An index of 1.0 is equivalent to the spleen weight of syngeneic grafted controls. An index >1.3 (graft index) is considered to be a successful graft rejection of the recipient animal. Any sample that prevents spienomegaly (<graft index) is considered as an immunosuppressive active. Likewise, enhancement of splenomegaly (>graft index) is due either to immunostimulatory synergy of the response or nonspecific immunostimulation. This assay is a cell-mediated type of response and is the direct in vivo correlate of the MLR.
The GVHR is widely used as an in vivo model in transplantation research laboratories. As in models for delayed sensitivity and allograft rejection, it also has clinical implications, especially in bone marrow transplantation. In this situation, immunocompetent lymphocytes transferred with the transplanted bone marrow cells can recirculate into the host bone marrow. These cells from the graft can react against the host (i.e., graft-vs-host disease) with deleterious consequences.
The highest test dose is selected from a previously determined maximum tolerated dose (MTD) resulting from a once only intraperitoneal (i.p.) injection of two animals/dose (e.g., 400, 100, 40 and 10 mg/kg) These animals are followed for five days to allow for possible toxic side effects of the test compound.
In the GVHR, male, CB6-F1 mice (H2^d+H2^b) are grafted by i.p. injection of 50×106 Balb/c (H2^d) splenic lymphocytes conditioned in high-glucose (4500 mg/L) Dulbecco's modified Eagles medium. […] Grafted positive controls, nongrafted negative controls and syngeneic grafted animals all receive vehicle i.p. injections during this time. A standard of cyclophosphamide (200 mg/kg) is used. Experimental animals are sacrificed on D8 and spleens removed. The data is reported as a spleen index compared to the weight of the syngeneic control spleen—both corrected for the total body weights of the animals. In addition, the spleens are homogenized and the lymphocytes enumerated and viabilities determined. The data from both determinations are also expressed as a percent immunomodulation of the positive controls. all data is corrected for nonspecific effects measured from nongrafted animals. Moribund animals are sacrificed immediately.

[2] = system: mixed lymphocytes from Balb/c (H-2d) and C57BI/6 (H-2b) mice; experiment: Murine Mixed Lymphocyte Reaction (MLR), 3H-thymidine incorporation; assay type: cell-based; details: for IC50: Mus musculus, Lymphocyte; for Index Cytotox./Activity: ratio LcV IC50 / MLR IC50
Experimental: Mixed Lymphocyte Reaction (MLR)
The MLR is an in vitro test of cellular immunity in which murine lymphocytes from genetically dissimilar animals are cocultured to mutually induce cell proliferation (i.e., two-way MLR method). Mixed cell suspensions, together with the test compound, are incubated for 96 hours and subsequently pulsed for 15 hours with tritiated-thymidine (3H-Thy), a radioisotopically labelled nucleic acid. Tritiated-thymidine is incorporated into the DNA of proliferating cells. Data from the MLR is generated as dpm of radioactivity which is then expressed as a percentage of cellular activity, relative to control, using the following reduced formula: [formula]
A 50% inhibitory concentration (IC50) value was interpolated for sesbanimide containing fractions tested. A ratio between cytotoxicity, as determined from the LcV described below, and activity in the MLR is also presented. A high ratio distinguishes noncytotoxic immunosuppression from general cytotoxicity.
Reconstituted extract (10 μl) is added in two sets of duplicates into wells of a 96-well microtiter plate and evaporated to dryness at room temperature. […] To the other set of sample duplicates is added complete media without cells so as to provide for background color control data. All plated are incubated in a 5% CO2 incubator for 96 hours and pulsed for 15 hours with 100 μl containing 1 μCi/well tritiated-thymidine (^3H-Thy). The plates are harvested onto glass fiber filter discs using an INOTECH harvester. The filter discs are counted directly using an INOTECH dry scintillation counter. The activity of the discs are calculated as a relative proliferative percent of a mean control value as described above.

CD-1 or CB6F1 Mice = experiment: Toxicology (MTD, LD50) in mice; assay type: in vivo, mouse
Experimental: (§1) The MTD establishes the parameters to establish in vivo dosages initiated for studying the Graft-v-Host reaction and skin grafting. The Swiss conventional mouse (Charles River CD-1) is used in a weight range from 18-30 g.
(§2) A saline solution containing 5% non-denatured EtOH and a drop of Tween-80 detergent is used a vehicle for dilution. Stirring and sonication are utilized to effect solution or suspension of the composition. The composition is injected within one hour of preparation. Animals are observed for five days (MTD) after injection for toxic symptoms and/or death. Group weights are taken D0 and D5. Surviving animals are sacrificed on D5 (MTD). A ‘Daily Logsheet’ used in the toxicity studies is appended.

[3] = Toxicology (MTD, LD50) in mice; assay type: in vivo, mouse; details: mouse, in vivo; CD-1 or CB6F1 mice
Experimental: as §1, §2

[4] = system: murine lymphocytes (Balb/c); experiment: Lymphocyte Viability / Cytotoxicity Assay (LcV), MTT; assay type: cell-based; details: Balb/c lymphocytes, MTT viability (cytotoxicity)
Experimental: (§3) Lymphocyte Cytotoxicity (LcV) Assay
(§4) The LCV is a in vitro cytotoxicity assay for murine lymphocytes designed by the investigator. The LCV is similar to the MLR with the exception that only one cell population (Balb/c) is incubated with the test compound to assess cytotoxicity as distinct from the antiproliferative effects of a test compound. That is, unlike the unambiguous determination of immunostimulation from MLR data, a judgement of immunosuppression can not be immediately interpreted. Cytotoxicity (e.g., due to direct cell lysis) from a compound can occur which would alter viability determinations inherent in the generation of MLR data. […] The percent viable cells is determined by the MTT-thiazolyl blue method after a similar incubation to the MLR of lymphocytes with the test sample. MTT is a substrate converted by mitochoridrial enzymes in living cells to a purple, water-insoluble, formazan crystal. If there is no significant reduction in cell viability, as determined by this detection method, then damaged cells are probably not present for low data values generated in the MLR. Colorimetric data from the LCV is calculated as a percentage of viability, relative to control, using the following formula: [formula]
(§5) A 50% viability, or 50% cytotoxicity, (IC50) value was interpolated for sesbanimide containing fractions tested.
(§6) Lymphocytes are prepared as described above for the MLR with the exception that cells from only one murine strain are prepared (BLAB/c). Reconstituted extract (10 μl) is added in two sets of duplicates into wells of a 96-well microtiter plate and evaporated to dryness at room temperature. Lymphocytes (2.5×10^6 cells/ml) are added to one set of duplicates and to wells containing no sample. Media containing no cells are added to the other set of duplicates to provide background color control data. Plated are incubated in a 5% CO2 incubator for 4 hours and pulsed with MTT-thiazolyl blue for 6-8 hours.

[5] = as above; assay type: cell-based, murine; details: Balb/c, mouse, murine lymphocytes (Balb/c); text summary of Table 4
Experimental: as §3, §4, §5, §6

[6] = system: Agrobacterium species strain PH-103; experiment: Antibiotic sensitivity (Difco sensitivity discs); assay type: cell-based, Agrobacterium sp.; details: strain PH-103, ATCC 231 basal medium, 27° C.
Experimental: The culture was incubated at 27° C. and records of the results were made after suitable incubation times. All media were prepared with 2.7% Instant Ocean Salts and pH was approximately neutral (7-7.4). The description of the culture and test results are as follows: […]

In the case of `O=P1(N(CCCl)CCCl)NCCCO1` (stereo not drawn) [Cyclophosphamide, cyclophosphamide], the “Alive Day 8” value [1] was 100% and 60%, the “Optimal Dose” value [1] was 200.0 mg/kg and the Index [1] was 0.23 and 0.28.

In the case of `C=C1COC(O)(C2OCOC(C3CC(=O)NC(=O)C3)C2O)C1C` (stereo not drawn) [Sesbanimide, sesbanimide], the “Alive Day 8” value [1] was 40%, the “Optimal Dose” value [1] was 0.2 mg/kg and the Index [1] was 0.92. For the same compound, the “separation of cytotoxicity to biological activity” value ([2]; LcV vs MLR) was > 3 log, the IC50 ([2]; in vitro cell-mediated immune response, text summary of Table 4, read-out: biological activity IC50) was 0.15 to 3.6 ng/mL (≈ 0.000458 to 0.011 µM) and the IC50 ([2]; murine two-way MLR, 96 h incubation, 15 h 3H-Thy pulse, read-out: MLR IC50) was 0.15 ng/mL (≈ 0.000458 µM). The “Index Cytotox./Activity” value [2] was 2,777, the “Maximum Tolerated” value (CD-1 or CB6F1 Mice; CD-1 or CB6F1 mice) was 0.56 mg/kg and the “Alive Day 5” value (CD-1 or CB6F1 Mice; at maximum tolerated dose, CD-1 or CB6F1 mice) was 100%. For the same compound, the LD50 determination (CD-1 or CB6F1 Mice; between 1.05 and 0.56 mg/kg/total dose, QD 1-7 experiment in CB6F1 mice) was 0.805 mg/kg/total dose, the toxicity (CD-1 or CB6F1 Mice; pure compound at 56, 10.5 and 5.6 mg/kg) was “toxic” and the “total dose showing no toxicity” value (CD-1 or CB6F1 Mice; pure compound, in vivo) was ≤ 0.56 mg/kg. It also gave an LD50 at 7 days [3] of 0.805 mg/kg, an IC50 ([4]; Mus musculus, Lymphocyte) of 0.417 µg/mL (≈ 1.27 µM) and an IC50 at 4 h [5] of 0.417 to 3.6 µg/mL (≈ 1.27 to 11 µM).

With `CCn1cc(C(=O)O)c(=O)c2ccc(C)nc21` [nalidixic acid] the Antibiotic sensitivity [6] was “Sensitive”.

With `CN[C@H](CC(C)C)C(=O)N[C@H]1C(=O)N[C@@H](CC(N)=O)C(=O)N[C@H]2C(=O)N[C@H]3C(=O)N[C@H](C(=O)N[C@H](C(=O)O)c4cc(O)cc(O)c4-c4cc3ccc4O)[C@H](O)c3ccc(c(Cl)c3)Oc3cc2cc(c3O[C@@H]2O[C@H](CO)[C@@H](O)[C@H](O)[C@H]2O[C@H]2C[C@](C)(N)[C@H](O)[C@H](C)O2)Oc2ccc(cc2Cl)[C@H]1O` [vancomycin] the Antibiotic sensitivity [6] was “resistant”.

For polymyxin, the Antibiotic sensitivity [6] was “resistant”.

In the case of sesbanimide, the “MLR IC50” value ([2]; murine two-way MLR, 96 h incubation, 15 h 3H-Thy pulse) was <7.5 ng/mL, the “Index Cytotox./Activity” value [2] was >1,746 and the “LcV IC50” value [4] was 13.100 µg/mL.

— patent US20010039041A1, “Immunosuppressive sesbanimide compositions and methods of treatment using same” (priority 1995, published 2001)
